We go through 23 compounds from US9670166B2, “Substituted bicyclic dihydropyrimidinones and their use as inhibitors of neutrophil elastase activity” (Boehringer Ingelheim International GmbH, priority 2013, dated 2017).

Values joined by “and” are separate entries in the source; they are usually repeats but may differ in a detail not shown here. Equal entries are not always repeated.

Data set [1] in a line: Metabolic stability with human liver microsomes. The following applies: pooled human liver microsomes 1 mg/ml, test compound 1 μM, 37° C., NADPH.
The nature of data set [2]: Metabolic stability with human hepatocytes. It counts as in vitro ADME. The conditions noted are these: human hepatocyte suspension, 1 μM, scaled by well stirred model.
Experimental: The cells are incubated for six hours (incubator, orbital shaker) and samples (25 μl) are taken at 0, 0.5, 1, 2, 4 and 6 hours. Samples are transferred into acetonitrile and pelleted by centrifugation (5 min) The supernatant is transferred to a new 96-deepwell plate, evaporated under nitrogen and resuspended. The decline of parent compound is analyzed by LC-MS/MS.
The intrinsic clearance CL_[sequence] is calculated as follows: CL_[sequence]=Dose/AUC=(C0/CD)/(AUD+clast/k)*1,000/60
(C0: initial concentration in the incubation [μM], CD: cell density of vital cells [10^6 cells/mL], AUD: area under the data [μM*h], clast: concentration of last data point [μM], k: slope of the regression line for parent decline [h^−1])
The calculated in vitro hepatic intrinsic clearance can be scaled up to the intrinsic in vivo hepatic clearance and used to predict hepatic in vivo blood clearance (CL) by the use of a liver model (well stirred model): CL_[sequence]_INVIVO [ml/min/kg]=(CL_[sequence] [μL/min/10^6 cells]*hepatocellularity [10^6 cells/g liver]*liver factor [g/kg bodyweight])/1,000 CL [ml/min/kg]=CL_[sequence]_INVIVO [ml/min/kg]*hepatic blood flow [ml/min/kg]/(CL_[sequence]_INVIVO [ml/min/kg]+hepatic blood flow [ml/min/kg]) Qh [%]=CL [ml/min/kg]/hepatic blood flow [ml/min/kg])
Data set [3] has as its system Caco-2 cells. Briefly: Drug transport across human Caco-2 cells. The format is in vitro ADME. The conditions noted are these: for Efflux ratio: PEBA/PEAB. (Caco-2 monolayers are a common model of the intestinal barrier.)
Text: Assay for Determination of Drug Transport Across Human Caco-2 Cells
The assay provides information on the potential of a compound to pass the cell membrane, on the extent of oral absorption as well as on whether the compound is actively transported by uptake and/or efflux transporters.
The compounds are assigned to permeability/absorption classes by comparison of the AB permeabilities with the AB permeabilities of reference compounds with known in vitro permeability and oral absorption in the human. Identical or similar permeabilities in both transport directions indicate passive permeation, vectorial permeability points to additional active transport mechanisms. […] Active transport is concentration-dependently saturable.
Caco-2 cells (1-2*10^5 cells/cm^2 area) are seeded on filter inserts (Costar transwell polycarbonate or PET filters, 0.4 μm pore size) and cultured (DMEM) for 10 to 25 days. Compounds are dissolved in appropriate solvent (like DMSO, 1-20 mM stock solutions). […] The transport solution (TL) is applied to the apical or basolateral donor side for measuring A-B or B-A permeability (3 filter replicates), respectively. The receiver side contains HTP-4 buffer supplemented with 2% BSA. […] Sampled receiver volumes are replaced with fresh receiver solution.

`CS(=O)(=O)c1cc(C#N)ccc1C1C2=C(CCC2=O)N(c2cccc(C(F)(F)F)c2)C(=O)N1CCCO` (centres unmarked) [Example 24.1]: in data set [1], the “t1/2 INVITRO” value worked out at 1.67 h.

For the compound `CNC(=O)N1C(=O)N(c2cccc(C(F)(F)F)c2)C2=C(C(=O)CC2)[C@H]1c1ccc(C#N)cc1` [Example 7.1A, (R)-4-(4-Cyanophenyl)-N-methyl-2,5-dioxo-1-(3-(trifluoromethyl)phenyl)-4,5,6,7-tetrahydro-1H-cyclopenta[d]pyrimidine-3(2H)-carboxamide], the “CL (predicted human hepatic in vivo blood clearance)” value in data set [2] is 3 mL/min/kg.

With `CCS(=O)(=O)c1cc(C#N)ccc1C1NC(=O)N(c2cccc(C(F)(F)F)c2)C2=C1C(=O)CC2` (centres unmarked) [Example 14, 4-(2,5-Dioxo-1-(3-(trifluoromethyl)phenyl)-2,3,4,5,6,7-hexahydro-1H-cyclopenta[d]pyrimidin-4-yl)-3-(ethylsulfonyl)benzonitrile], the “CL (predicted human hepatic in vivo blood clearance)” value in data set [2] is 4 mL/min/kg.

Consider `CS(=O)(=O)c1cc(C#N)ccc1C1C2=C(CCC2=O)N(c2cccc(C(F)(F)F)c2)C(=O)N1CC(=O)N1CC2CC2C1` (centres unmarked) [Example 22.4], for which the “t1/2 INVITRO” value in data set [1] is above 2.17 h.

Consider `CS(=O)(=O)c1cc(C#N)ccc1C1NC(=O)N(c2cccc(C(F)F)c2)C2=C1C(=O)CC2` (centres unmarked) [Example 15.4, 4-(1-(3-(difluoromethyl)phenyl)-2,5-dioxo-2,3,4,5,6,7-hexahydro-1H-cyclopenta[d]pyrimidin-4-yl)-3-(methylsulfonyl)benzonitrile], for which, in data set [2], the “CL (predicted human hepatic in vivo blood clearance)” value was 0 mL/min/kg.

`N#Cc1ccc(C2C3=C(CCC3=O)N(c3cccc(C(F)(F)F)c3)C(=O)N2C(=O)NCCCO)cc1` (centres unmarked) [Example 7.3]: the “t1/2 INVITRO” value in data set [1] is above 2.17 h. Also, in data set [3], the Efflux ratio was found to be 7.1. Also, in data set [2], the “CL (predicted human hepatic in vivo blood clearance)” value was 7 mL/min/kg.

Regarding `C[C@H](CO)NC(=O)N1C(=O)N(c2cccc(C(F)(F)F)c2)C2=C(C(=O)CC2)C1c1ccc(C#N)cc1` (some centres unmarked) [Example 41.4], in data set [1], the “t1/2 INVITRO” value is above 2.17 h. Also, the Efflux ratio in data set [3] is recorded as 8.7. Moreover, in data set [2], the “CL (predicted human hepatic in vivo blood clearance)” value was 5 mL/min/kg.

With `N#Cc1ccc([C@@H]2C3=C(CCC3=O)N(c3cccc(C(F)(F)F)c3)C(=O)N2C(=O)NCCO)cc1` [Example 7.2A, (R)-4-(4-Cyanophenyl)-N-(2-hydroxyethyl)-2,5-dioxo-1-(3-(trifluoromethyl)phenyl)-4,5,6,7-tetrahydro-1H-cyclopenta[d]pyrimidine-3(2H)-carboxamide], the “CL (predicted human hepatic in vivo blood clearance)” value in data set [2] was 0 mL/min/kg.

With `N#Cc1ccc(C2C3=C(CCC3=O)N(c3cccc(C(F)(F)F)c3)C(=O)N2CC(=O)N2CCC2)cc1` (centres unmarked) [Example 6.3], the “t1/2 INVITRO” value in data set [1] was above 2.17 h. Further, in data set [2], the “CL (predicted human hepatic in vivo blood clearance)” value is 4 mL/min/kg.

As for `CNC(=O)N1C(=O)N(c2cccc(C(F)(F)F)c2)C2=C(C(=O)CC2)C1c1ccc(C#N)cn1` (centres unmarked) [Example 50.1], the “CL (predicted human hepatic in vivo blood clearance)” value in data set [2] was 1 mL/min/kg.

`CC(C)(O)CCNC(=O)N1C(=O)N(c2cccc(C(F)(F)F)c2)C2=C(C(=O)CC2)C1c1ccc(C#N)cc1` (centres unmarked) [Example 41.17]: the “t1/2 INVITRO” value in data set [1] was above 2.17 h. Moreover, in data set [3], the Efflux ratio turned out to be 3.5. Besides, the “CL (predicted human hepatic in vivo blood clearance)” value in data set [2] is 3 mL/min/kg.

Take `CC(C)(O)CNC(=O)N1C(=O)N(c2cccc(C(F)(F)F)c2)C2=C(C(=O)CC2)[C@H]1c1ccc(C#N)cc1` [Example 41A, (R)-4-(4-Cyanophenyl)-N-(2-hydroxy-2-methylpropyl)-2,5-dioxo-1-(3-(trifluoro-methyl)phenyl)-4,5,6,7-tetrahydro-1H-cyclopenta[d]pyrimidine-3(2H)-carboxamide]: in data set [2], the “CL (predicted human hepatic in vivo blood clearance)” value was 0 mL/min/kg.

For the compound `C[S+]([O-])CCNC(=O)N1C(=O)N(c2cccc(C(F)(F)F)c2)C2=C(C(=O)CC2)C1c1ccc(C#N)cc1` (centres unmarked) [Example 7.6], the “t1/2 INVITRO” value in data set [1] is above 2.17 h.

`C[C@H](O)CNC(=O)N1C(=O)N(c2cccc(C(F)(F)F)c2)C2=C(C(=O)CC2)C1c1ccc(C#N)cc1` (some centres unmarked) [Example 41.1]: the “t1/2 INVITRO” value in data set [1] was above 2.17 h. Also, the Efflux ratio in data set [3] is 8.9 and 4.8. Also, the “CL (predicted human hepatic in vivo blood clearance)” value in data set [2] was 2 mL/min/kg.

In the case of `CS(=O)(=O)c1cc(C#N)ccc1[C@H]1NC(=O)N(c2cccc(C(F)(F)F)c2)C2=C1C(=O)CC2` [example 10A, (S)-4-(2,5-Dioxo-1-(3-(trifluoromethyl)phenyl)-2,3,4,5,6,7-hexahydro-1H-cyclopenta[d]pyrimidin-4-yl)-3-(methylsulfonyl)benzonitrile], the “AB permeability (comparison in words)” value in data set [3] (Caco-2, compared to example 44 disclosed in US 2011/0034433) is “improved AB permeability”. In addition, the “CL (predicted human hepatic in vivo blood clearance)” value in data set [2] is 0 mL/min/kg.

Regarding `CS(=O)(=O)N1C(=O)N(c2cccc(C(F)(F)F)c2)C2=C(C(=O)CC2)[C@H]1c1ccc(C#N)cc1` [Example 9A, (R)-4-(3-(Methylsulfonyl)-2,5-dioxo-1-(3-(trifluoromethyl)phenyl)-2,3,4,5,6,7-hexahydro-1H-cyclopenta[d]pyrimidin-4-yl)benzonitrile], the “CL (predicted human hepatic in vivo blood clearance)” value in data set [2] was 0 mL/min/kg.

For `CN(C)C(=O)CN1C(=O)N(c2cccc(C(F)(F)F)c2)C2=C(C(=O)CC2)C1c1ccc(C#N)cc1` (centres unmarked) [Example 6.2], the “CL (predicted human hepatic in vivo blood clearance)” value in data set [2] is 6 mL/min/kg.

Take `N#Cc1ccc([C@@H]2C3=C(CCC3=O)N(c3cccc(C(F)F)c3)C(=O)N2C(=O)NCCCO)cc1` [Example 52A, (R)-4-(4-Cyanophenyl)-1-(3-(difluoromethyl)phenyl)-N-(3-hydroxypropyl)-2,5-dioxo-4,5,6,7-tetrahydro-1H-cyclopenta[d]pyrimidine-3(2H)-carboxamide]: in data set [2], the “CL (predicted human hepatic in vivo blood clearance)” value was 8 mL/min/kg.

`CS(=O)(=O)c1cc(C#N)ccc1[C@@H]1C2=C(CCC2=O)N(c2cccc(C(F)(F)F)c2)C(=O)N1CC#N` [Example 23, (S)-4-(3-(Cyanomethyl)-2,5-dioxo-1-(3-(trifluoromethyl)phenyl)-2,3,4,5,6,7-hexahydro-1H-cyclopenta[d]pyrimidin-4-yl)-3-(methylsulfonyl)benzonitrile]: the “CL (predicted human hepatic in vivo blood clearance)” value in data set [2] is 0 mL/min/kg.

Consider `CCNC(=O)N1C(=O)N(c2ccnc(C(F)(F)F)c2)C2=C(C(=O)CC2)C1c1ccc(C#N)cc1` (racemic) [Example 54.2], for which the “t1/2 INVITRO” value in data set [1] is above 2.17 h.

With `N#Cc1ccc(C2C3=C(CCC3=O)N(c3cccc(C(F)(F)F)c3)C(=O)N2C(=O)NC2CCOCC2)cc1` (centres unmarked) [Example 41.16], the “t1/2 INVITRO” value in data set [1] is above 2.17 h. The Efflux ratio in data set [3] came out at 1.0.

Consider `N#Cc1ccc(C2C3=C(CCC3=O)N(c3cccc(C(F)(F)F)c3)C(=O)N2C(=O)NC2(CO)CC2)cc1` (centres unmarked) [Example 41.5], for which, in data set [3], the Efflux ratio was 8.7. The compound also yielded a PEBA in data set [3] (basal-to-apical, Caco-2 monolayers, pH 7.2, 37° C.) of 77 ×10⁻⁶ cm/s.

`CN1C(=O)N(c2cccc(C(F)(F)F)c2)C2=C(C(=O)CC2)[C@H]1c1ccc(C#N)cc1S(C)(=O)=O` [Example 25, (S)-4-(3-Methyl-2,5-dioxo-1-(3-(trifluoromethyl)phenyl)-2,3,4,5,6,7-hexahydro-1H-cyclopenta[d]pyrimidin-4-yl)-3-(methylsulfonyl)benzonitrile]: in data set [2], the “CL (predicted human hepatic in vivo blood clearance)” value was 2 mL/min/kg.
